# The source made the active and inactive calls.
# Key:
# [1] = M. tuberculosis H37Rv growth inhibitors, H37Rv strain (AID 1626); assay type: functional
# cells [2] = assay type: functional, cell-based
# cells [3] = assay type: functional, cell-based; remark: listed apart in the source
# [4] = target: T1, Adenosylmethionine-8-amino-7-oxononanoate aminotransferase (Mycobacterium tuberculosis, UniProt P9WQ81); experiment: Mycobacterium tuberculosis BioA enzyme inhibitor Measured in Biochemical System Using Plate Reader - 2163-02_Inhibitor_Dose_CherryPick_Activity.; assay type: functional, Mycobacterium tuberculosis UT205
# T1 sequence (P9WQ81 whole entry): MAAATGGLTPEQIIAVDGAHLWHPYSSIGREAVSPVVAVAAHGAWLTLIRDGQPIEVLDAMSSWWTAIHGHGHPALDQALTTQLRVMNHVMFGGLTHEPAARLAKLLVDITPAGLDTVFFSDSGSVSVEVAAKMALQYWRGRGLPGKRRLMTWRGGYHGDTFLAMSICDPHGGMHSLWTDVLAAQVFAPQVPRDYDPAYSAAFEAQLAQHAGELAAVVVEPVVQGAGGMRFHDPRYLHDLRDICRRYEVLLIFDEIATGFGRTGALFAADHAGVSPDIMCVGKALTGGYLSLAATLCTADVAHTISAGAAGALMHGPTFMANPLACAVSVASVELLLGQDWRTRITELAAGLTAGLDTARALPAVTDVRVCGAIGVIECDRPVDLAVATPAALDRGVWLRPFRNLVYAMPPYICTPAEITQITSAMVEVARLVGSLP
# [5] = target: T2, Heat shock factor protein 1 (Mus musculus, UniProt P38532); experiment: inhibition of MG132-induced HSE-luciferase signal, confirmation, cell-based, NIH3T3, luminescence, dose retest (AID 2382); assay type: functional;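 note: NIH3T3 fibroblasts with HSF1-driven luciferase reporter stressed by proteasome inhibitor MG132; luminescence from HSF1-driven luciferase expression after 8 hours of MG132 stress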
# T2 sequence (P38532 whole entry): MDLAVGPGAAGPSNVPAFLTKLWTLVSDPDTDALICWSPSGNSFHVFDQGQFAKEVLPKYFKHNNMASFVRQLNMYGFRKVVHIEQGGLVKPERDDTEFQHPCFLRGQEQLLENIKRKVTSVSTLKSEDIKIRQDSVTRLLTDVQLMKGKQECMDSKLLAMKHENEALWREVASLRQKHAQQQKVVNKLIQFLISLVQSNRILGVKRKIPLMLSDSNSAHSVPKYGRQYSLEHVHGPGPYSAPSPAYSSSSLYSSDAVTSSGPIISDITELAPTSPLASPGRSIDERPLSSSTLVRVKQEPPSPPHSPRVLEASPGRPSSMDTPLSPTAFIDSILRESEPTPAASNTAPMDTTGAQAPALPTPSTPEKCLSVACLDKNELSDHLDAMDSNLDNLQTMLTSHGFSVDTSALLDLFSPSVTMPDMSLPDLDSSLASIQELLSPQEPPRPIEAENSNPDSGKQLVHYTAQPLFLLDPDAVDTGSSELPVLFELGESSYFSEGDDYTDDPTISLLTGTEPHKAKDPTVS
# [6] = target: Dual specificity tyrosine-phosphorylation-regulated kinase 1A (Rattus norvegicus, UniProt Q63470); assay type: biochemical, Homo sapiens
# HEK293 [7] = experiment: NOD1 signaling inhibitors, primary screen, cell-based, luminescence, uHTS (AID 1578); assay type: functional; conditions: Homo sapiens
# HEK293 [8] = experiment: cells; assay type: functional, cell-based; conditions: Homo sapiens
# HEK293 [9] = experiment: cells; assay type: functional, cell-based; conditions: Homo sapiens; remark: listed apart in the source
# [10] = target: Nucleotide-binding oligomerization domain-containing protein 2 (Homo sapiens, UniProt Q9HC29); experiment: NOD2 signaling inhibitors, cell-based, luminescence, uHTS, HEK293 (AID 1566); assay type: functional
# Nucleotide-binding oligomerization domain-containing protein 2, sequence (Q9HC29 whole entry, the tested form may be a part): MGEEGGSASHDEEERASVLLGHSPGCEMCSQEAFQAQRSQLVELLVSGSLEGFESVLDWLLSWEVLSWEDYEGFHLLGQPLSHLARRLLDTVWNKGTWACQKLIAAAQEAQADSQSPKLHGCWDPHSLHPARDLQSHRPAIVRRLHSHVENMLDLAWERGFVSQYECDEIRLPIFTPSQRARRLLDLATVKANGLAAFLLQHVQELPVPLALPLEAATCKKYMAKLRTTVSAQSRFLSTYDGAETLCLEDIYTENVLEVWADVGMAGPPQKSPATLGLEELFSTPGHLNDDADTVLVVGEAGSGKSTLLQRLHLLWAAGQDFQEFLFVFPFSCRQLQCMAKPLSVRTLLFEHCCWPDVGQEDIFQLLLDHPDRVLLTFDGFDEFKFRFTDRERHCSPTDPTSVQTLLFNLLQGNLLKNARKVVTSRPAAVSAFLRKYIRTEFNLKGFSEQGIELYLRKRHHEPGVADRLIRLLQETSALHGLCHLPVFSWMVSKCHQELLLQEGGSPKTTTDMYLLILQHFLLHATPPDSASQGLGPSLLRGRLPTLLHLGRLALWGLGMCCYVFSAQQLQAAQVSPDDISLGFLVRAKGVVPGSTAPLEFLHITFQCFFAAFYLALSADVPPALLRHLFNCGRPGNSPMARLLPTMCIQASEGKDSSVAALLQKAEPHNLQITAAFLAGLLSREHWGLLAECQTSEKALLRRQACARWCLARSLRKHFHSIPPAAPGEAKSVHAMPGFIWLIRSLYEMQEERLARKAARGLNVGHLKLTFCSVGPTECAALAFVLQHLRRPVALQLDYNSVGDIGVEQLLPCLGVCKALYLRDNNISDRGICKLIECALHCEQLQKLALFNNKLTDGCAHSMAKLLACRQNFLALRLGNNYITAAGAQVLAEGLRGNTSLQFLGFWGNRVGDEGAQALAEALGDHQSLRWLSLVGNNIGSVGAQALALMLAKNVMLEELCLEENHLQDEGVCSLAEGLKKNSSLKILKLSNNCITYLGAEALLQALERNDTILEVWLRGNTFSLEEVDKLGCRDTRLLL
# HEK293 [11] = experiment: NOD2 signaling inhibitors in MDP-stimulated cells, cell-based, uHTS, luminescence (AID 2001); assay type: functional; conditions: Homo sapiens
# HEK293 [12] = experiment: cells; assay type: functional, cell-based; conditions: Homo sapiens; remark: listed apart in the source
# Tumor necrosis factor = Tumor necrosis factor (Homo sapiens, UniProt P01375); experiment: TNFa-triggered NF-kB activation inhibitors, SAR follow-up, cell-based, revised (AID 2337); assay type: functional
# Tumor necrosis factor, sequence (P01375 whole entry, the tested form may be a part): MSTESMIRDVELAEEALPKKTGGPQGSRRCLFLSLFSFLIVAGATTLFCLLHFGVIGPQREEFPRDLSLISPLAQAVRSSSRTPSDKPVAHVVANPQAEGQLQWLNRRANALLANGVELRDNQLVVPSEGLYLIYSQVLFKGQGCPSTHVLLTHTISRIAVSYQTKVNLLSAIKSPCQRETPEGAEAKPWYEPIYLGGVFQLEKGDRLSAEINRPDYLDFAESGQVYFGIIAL
# [13] = target: T3, Nucleotide-binding oligomerization domain-containing protein 1 (Homo sapiens, UniProt Q9Y239); experiment: NOD1 signaling inhibitors, SAR follow-up, revised (AID 2333); assay type: functional
# T3 sequence (Q9Y239 whole entry): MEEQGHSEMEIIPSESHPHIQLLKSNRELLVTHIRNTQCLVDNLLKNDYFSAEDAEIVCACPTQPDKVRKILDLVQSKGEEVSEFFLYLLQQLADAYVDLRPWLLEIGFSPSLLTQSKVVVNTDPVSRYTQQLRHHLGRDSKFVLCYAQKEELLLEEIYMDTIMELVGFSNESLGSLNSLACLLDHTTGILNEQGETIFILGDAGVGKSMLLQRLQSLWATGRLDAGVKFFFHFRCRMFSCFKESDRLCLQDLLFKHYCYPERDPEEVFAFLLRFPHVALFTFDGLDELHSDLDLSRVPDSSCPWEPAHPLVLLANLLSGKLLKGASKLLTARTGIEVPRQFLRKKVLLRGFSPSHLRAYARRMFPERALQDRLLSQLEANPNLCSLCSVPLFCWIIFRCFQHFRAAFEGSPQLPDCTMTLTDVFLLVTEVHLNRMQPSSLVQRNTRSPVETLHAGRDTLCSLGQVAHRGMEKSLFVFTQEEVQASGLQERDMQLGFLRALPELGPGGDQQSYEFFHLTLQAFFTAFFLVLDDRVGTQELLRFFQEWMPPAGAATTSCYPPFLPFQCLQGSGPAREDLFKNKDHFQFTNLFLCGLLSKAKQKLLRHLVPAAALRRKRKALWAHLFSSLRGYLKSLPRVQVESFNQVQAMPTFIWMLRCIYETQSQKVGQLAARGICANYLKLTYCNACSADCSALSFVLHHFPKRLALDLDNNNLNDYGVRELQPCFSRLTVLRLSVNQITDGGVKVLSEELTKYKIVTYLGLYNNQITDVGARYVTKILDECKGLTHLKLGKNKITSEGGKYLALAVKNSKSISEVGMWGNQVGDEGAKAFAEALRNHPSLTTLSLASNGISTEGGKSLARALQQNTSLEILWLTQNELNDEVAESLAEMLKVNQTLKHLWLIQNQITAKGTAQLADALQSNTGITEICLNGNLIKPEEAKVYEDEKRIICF
# HEK293 [14] = experiment: cells; conditions: Homo sapiens
# [15] = target: T4, Rac GTPase-activating protein 1 (Homo sapiens, UniProt Q9H0H5); experiment: MgcRacGAP GTPase-activating activity inhibitors, confirmation, biochemical, ADP Hunter fluorescence, primary and confirmatory (AID 624330); assay type: functional
# T4 sequence (Q9H0H5 whole entry): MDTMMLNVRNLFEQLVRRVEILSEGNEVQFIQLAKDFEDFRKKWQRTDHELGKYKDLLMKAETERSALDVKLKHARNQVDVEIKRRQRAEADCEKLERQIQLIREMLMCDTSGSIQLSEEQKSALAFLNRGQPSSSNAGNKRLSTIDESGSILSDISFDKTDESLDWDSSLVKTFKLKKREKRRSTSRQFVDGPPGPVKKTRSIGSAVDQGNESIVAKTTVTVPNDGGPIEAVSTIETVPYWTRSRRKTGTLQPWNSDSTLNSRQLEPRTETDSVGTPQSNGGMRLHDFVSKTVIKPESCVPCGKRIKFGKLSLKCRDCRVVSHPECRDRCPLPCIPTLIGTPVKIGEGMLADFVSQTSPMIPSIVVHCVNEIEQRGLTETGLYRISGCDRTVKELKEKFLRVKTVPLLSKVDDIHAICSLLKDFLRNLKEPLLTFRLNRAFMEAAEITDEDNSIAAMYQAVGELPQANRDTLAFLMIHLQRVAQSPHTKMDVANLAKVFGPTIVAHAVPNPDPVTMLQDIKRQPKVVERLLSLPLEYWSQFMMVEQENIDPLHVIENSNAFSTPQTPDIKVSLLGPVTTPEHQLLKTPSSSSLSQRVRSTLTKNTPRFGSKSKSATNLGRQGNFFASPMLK
# Estrogen receptor = target: T5, Estrogen receptor (Homo sapiens, UniProt P03372);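 note: potency for inhibiting coactivator peptide recruitment to the receptor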
# T5 sequence (P03372 whole entry): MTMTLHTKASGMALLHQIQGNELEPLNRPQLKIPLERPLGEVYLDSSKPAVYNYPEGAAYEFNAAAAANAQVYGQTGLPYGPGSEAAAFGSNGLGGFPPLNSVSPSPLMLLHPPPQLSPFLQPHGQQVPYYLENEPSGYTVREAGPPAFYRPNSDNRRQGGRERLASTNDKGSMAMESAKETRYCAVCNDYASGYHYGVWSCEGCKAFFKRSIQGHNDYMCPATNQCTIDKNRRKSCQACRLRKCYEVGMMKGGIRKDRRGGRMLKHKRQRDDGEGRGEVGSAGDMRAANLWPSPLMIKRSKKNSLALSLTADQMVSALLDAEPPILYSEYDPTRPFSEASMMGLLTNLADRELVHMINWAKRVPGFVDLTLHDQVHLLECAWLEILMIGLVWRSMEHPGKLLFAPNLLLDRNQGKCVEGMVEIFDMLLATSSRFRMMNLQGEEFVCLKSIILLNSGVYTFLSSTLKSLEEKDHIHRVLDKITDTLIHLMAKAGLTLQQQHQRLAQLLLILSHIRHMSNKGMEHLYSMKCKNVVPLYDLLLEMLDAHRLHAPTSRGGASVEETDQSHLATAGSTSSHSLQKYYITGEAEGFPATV
# cells [16] = assay type: functional, cell-based; remark: listed apart in the source
# cells [17] = assay type: functional, cell-based; remark: listed apart in the source
# [18] = target: T6, DNA repair protein RAD52 homolog (Homo sapiens, UniProt P43351); assay type: functional, biochemical
# T6 sequence (P43351 whole entry): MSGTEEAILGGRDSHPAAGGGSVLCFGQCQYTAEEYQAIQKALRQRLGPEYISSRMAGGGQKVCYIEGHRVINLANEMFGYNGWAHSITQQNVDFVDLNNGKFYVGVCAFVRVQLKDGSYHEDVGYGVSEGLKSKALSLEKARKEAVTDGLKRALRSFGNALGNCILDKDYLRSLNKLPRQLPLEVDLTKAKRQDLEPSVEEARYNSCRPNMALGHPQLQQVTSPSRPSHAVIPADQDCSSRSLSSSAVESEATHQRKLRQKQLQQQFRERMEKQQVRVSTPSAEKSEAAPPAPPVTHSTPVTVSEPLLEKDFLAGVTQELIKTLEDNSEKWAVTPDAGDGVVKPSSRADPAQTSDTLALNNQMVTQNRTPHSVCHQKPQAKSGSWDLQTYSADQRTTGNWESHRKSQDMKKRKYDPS
# Paired box protein Pax-8 = Paired box protein Pax-8 (Homo sapiens, UniProt Q06710); experiment: inhibitors of PAX8-driven TPO luciferase reporter, dose response, RMG-I cells, cherry-pick (AID 687027); assay type: functional, cell-based;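 note: luciferase reporter driven by Pax8 target thyroperoxidase promoter measured by SteadyGlo luminescence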
# Paired box protein Pax-8, sequence (Q06710 whole entry): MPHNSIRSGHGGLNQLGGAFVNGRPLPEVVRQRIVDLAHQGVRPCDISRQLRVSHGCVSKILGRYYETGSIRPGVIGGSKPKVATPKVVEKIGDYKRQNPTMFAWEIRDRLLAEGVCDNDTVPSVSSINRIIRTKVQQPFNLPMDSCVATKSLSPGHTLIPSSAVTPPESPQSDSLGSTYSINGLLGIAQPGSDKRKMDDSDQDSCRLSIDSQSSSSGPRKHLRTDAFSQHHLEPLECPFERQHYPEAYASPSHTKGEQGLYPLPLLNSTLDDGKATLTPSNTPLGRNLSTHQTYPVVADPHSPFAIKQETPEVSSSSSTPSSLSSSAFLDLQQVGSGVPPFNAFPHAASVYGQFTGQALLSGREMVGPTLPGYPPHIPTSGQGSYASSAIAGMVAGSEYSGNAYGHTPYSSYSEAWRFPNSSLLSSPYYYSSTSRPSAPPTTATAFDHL
# [19] = NIH:OVCAR-3 ovarian cancer cell cytotoxicity, dose response, PAX8 inhibitor project, plate reader, dry powder samples (AID 743044); assay type: functional, cell-based
# [20] = HEp-2 cell cytotoxicity, dose response, cytotoxicity control for RSV inhibitor project, HTS (AID 2410); assay type: functional; conditions: human respiratory syncytial virus
# [21] = microbe, parasite or virus in culture; assay type: functional; conditions: Mycobacterium tuberculosis
compound,measurement,setting,value
COc1ccc(/N=C/c2ccc[nH]2)cc1,IC50,[1],> 100 µM (active)
Cn1nnc2cc(C(=O)N3CCC(c4ccccc4)C3)ccc21 (stereo unspecified),EC50,cells [2],> 350 µM (not active)
same,EC50,cells [3],> 350 µM (not active)
same,AC50,[4],4.86 µM (active)
CNC(=S)N/N=C/c1ccc(-c2cccc(C(=O)O)c2)o1,EC50,[5],> 195 µM (not active)
same,AC50,[6],7.05 µM (active)
COc1cccc(C(=O)Nc2sc3c(c2C(=O)O)CCCC3)c1,EC50,HEK293 [7],> 20 µM (inactive)
same,IC50,HEK293 [8],> 20 µM (inactive)
same,IC50,HEK293 [9],> 20 µM (inactive)
same,EC50,[10],> 20 µM (inactive)
same,IC50,HEK293 [11],> 20 µM (inactive)
same,IC50,HEK293 [12],> 20 µM (inactive)
same,IC50,Tumor necrosis factor,> 20 µM (inactive)
same,IC50,[13],1.76 µM (active)
same,IC50,HEK293 [14],> 20 µM (inactive)
COc1ccc(NC(=O)c2ccc(S(=O)(=O)N(C)C)cc2)cc1OC,AC50,[4],9.66 µM (active)
O=C(CNCc1ccco1)Nc1ccc(Oc2ccccc2)cc1,IC50,[1],> 100 µM (active)
same,IC50,[15],122 µM (active)
O=C(COC(=O)CCC(=O)c1cccs1)NCc1ccco1,IC50,Estrogen receptor,11.9 µM (active)
O=C(Nc1nc(-c2ccc(-c3ccccc3)cc2)cs1)c1cnccn1,IC50,[1],> 100 µM (active)
O=C(CCCOc1ccccc1)NCCc1ccccc1,IC50,cells [16],> 29.9 µM (inactive)
same,EC50,cells [17],> 29.9 µM (inactive)
N=C(N)Nc1cc2ccccc2c2ccccc12,IC50,cells [16],> 29.9 µM (inactive)
same,AC50,[18],7.61 µM (active)
same,EC50,cells [17],> 29.9 µM (inactive)
C[C@@H]1CN([C@H](C)CO)C(=O)c2cc(NS(=O)(=O)c3ccc(Cl)cc3)ccc2O[C@@H](C)CCCCO[C@H]1CN(C)Cc1ccc(Cl)c(Cl)c1,AC50,Paired box protein Pax-8,4.84 µM (active)
same,AC50,[19],32.8 µM (active)
Cc1ccc(CNC(=O)c2cc3c(=O)n(C)c4ccccc4c3n2C)o1,AC50,[6],> 120 µM (inactive)
O=C(NNC(=O)c1ccc(SCC2CCCO2)c([N+](=O)[O-])c1)c1ccc(Cl)c([N+](=O)[O-])c1 (stereo unspecified),IC50,Estrogen receptor,23.3 µM (active)
O=C(Cc1cccs1)N1CCN=C1SCc1ccc(Br)cc1,IC50,[1],> 100 µM (active)
Cc1nnc(N2CCC(C(=O)N3CCCCC3)CC2)c2nn(-c3ccc(Cl)cc3)c(C)c12,AC50,[4],4.14 µM (active)
COc1ccc(NC(=O)CSc2ncn(-c3ccccc3)n2)cc1Cl,IC50,[1],> 100 µM (active)
Cc1cc(SCC(=O)NC(=O)NCc2ccco2)nc2c(C)cccc12,IC50,Estrogen receptor,32 µM (not active)
CC(=O)c1ccc(N2CCN(C(=O)c3ccc4[nH]cnc4c3)CC2)cc1,AC50,[4],8.11 µM (active)
CN1/C(=N\O)c2cccc3cccc1c23,CC50,[20],24.9 µM (active)
same,CC50,[21],> 40 µM (active)
same,AC50,[6],1.28 µM (active)
same,IC50,[15],24.8 µM (active)
CC(C)c1onc(C(=O)NCCc2ccccc2)c1[N+](=O)[O-],IC50,cells [16],> 29.9 µM (inactive)
same,EC50,cells [17],> 29.9 µM (inactive)
CC(=O)N1[C@@H]2c3ccc(-c4cccnc4)c(=O)n3C[C@@H]2[C@@H](CO)[C@@H]1C(=O)NCc1ccccc1Cl,AC50,[4],1.09 µM (active)
